Assay results as given in US20150087722A1, “TREATMENT FOR BREAST TUMOR CELL METASTASIS” (China Medical University, priority 2012, published 2015).

Tests used:
[1] = test system: NF-κB in MDA-MB-231 cells; assay: NF-κB immunofluorescence staining; type: cell-based, human; settings: MDA-MB-231, FIG. 7
Procedure: FIG. 7 illustrates photographs taken at a 200× field under a fluorescence microscope, where a primary antibody NF-κB was used and the cells were stained through the immunofluenrence staining method. In the immunofluenrence staining, the compound II in different concentrations were used to stimulate MDA-MB-231 cells, and a primary antibody NF-κB (with a dilution ratio of 1:250) was added, and then the cells were cultured at an atmosphere of 5% CO2 for 2 h at 37° C. Subsequently a fluorescence secondary antibody (with a dilution ratio of 1:200) was added, and finally DAPI (with a dilution ratio of 1:1000) was added. The cells were stored with protect from light at the room temperature for 5 min. The cells were observed under the fluorescence microscope and a photograph (200×) of the cells was taken. Finally, the cells were mounted with the mounting gel.

[2] = test system: ROS content in breast tumor cells MDA-MB-453; assay: reactive oxygen species method; type: cell-based, human; settings: 40 μM
Procedure: In FIG. 12, the reactive oxygen species method was used to detect the effect of increased treatment doses of the compound II on the ROS content in breast tumor cells, and a photograph was taken at a 200× field under the fluorescence microscope. In the intracellular reactive oxygen species method, the cells were planted in a 24-well plate (5×10^4 cells/well). The next day after the cells were adhered to the wall, the cells were cultured in a serum free DMEM culture medium at an atmosphere of 5% CO2 in an incubator at 37° C. for 12 h. The compound II was added into the 1% FBS-DMEM culture medium, and the cells were cultured in the culture medium for 2 h. The cells were then washed with PBS. 100 ng/mL LPS was added to react with the cells, and then the cells were washed with PBS. […] The absorbance was measured by a fluorescence spectrometer, where the excitation wavelength was set as 485±20 nm, and the […] was set as 530±25 nm. […] Thus in the following the cells were treated with 40 μM the compound II and then the ROS content of cells was detected. […] FIG. 23 is a quantitative diagram showing the effect of increasing treatment time on the ROS content of breast tumor cells when the reactive oxygen species method was performed to detect the breast tumor cells treated with 40 μM the compound II. […]

[3] = test system: MDA-MB-231 inoculated nude mice; assay: nude mice xenograft tumor model; type: in vivo, nude mice of BALB/c-nu species; settings: about 0.75 mg/Kg injected everyday
Procedure: The in vivo experiment was performed in a nude mice xenograft tumor model. The experimental animals were nude mice of BALB/c-nu species commercially obtained from the National Laboratory Animal Center (NLAC). The nude mice were raise in a germ-free box and the light application time was 7:00-19:00. Filtered air, sterilized water and feed were supplied to and naturally eaten by the nude mice. Female nude mice which matured in 8-10 weeks were used to perform the experiment. The breast tumor cell (2×10^6/100 μl) was injected into one side of each back part of 60 nude mice in a hypodermic injection manner. After about 10 days 1-3 mm tumor was grown on each back of the nude mice, the nude mice were randomly divided into 4 groups. Three groups of nude mice were fed with the active ingredient Antrodia camphorata in different doses. The tumor growth was observed and photographed every day. The tumor volume was measured every three days. The volume was calculated according to the equation provided by Osborne et al in 1987. The experimental animals were divided into the control group (not treated), the solvent group (only physiological saline was injected) and a group injected with the compound II (the dose was about 0.75 mg/Kg). The injection was performed everyday, and the animals were fed in normal conditions and photographed for record, so as to compare the tumor growth condition of experimental animals in each group.

[4] = test system: breast tumor cells MDA-MB-453; assay: MTT cell viability assay; type: cell-based, human; settings: for cell viability: FIG. 24
Procedure: The breast tumor cells (MDA-MB-231, MDA-MB-435, MDA-MB-453, MDA-MB-468 and MCF-7) were commercially obtained from the bioresource collection and research center (BCRC), and were cultured in a 10% FBS-DMEM culture medium (i.e., a DMEM culture medium including 10% fetal bovine serum (FBS)). The human breast cell MCF-10A was cultured in a 5% FBS-DMEM culture medium (including F12, insulin, hydrocortisol and epidermal growth factor). An environment of 5% CO2 was kept in the incubator at a constant temperature of 37° C. When a certain number of cells were generated in culture, the culture medium was removed after being centrifuged for 10 min at a rate of 900 rpm. The culture medium was replaced in 24 h before the experiment, and the number of cells was counted by a hemocytometer.
The cell viability was determined by a method of […] (MTT assay). The test method for assaying cell viability refers to steps provided by Parada-Turska et al.
The breast tumor cells MDA-MB-231 were inoculated in a 24-well plate (2.5×10^5 cells/well), and the next day after cells were adhered to the wall of the plate, the cells were washed with PBS. 1% FBS-DMEM culture medium was then added so as to synchronize cells. The next day compound II having different concentrations were added into the wells, and the cells were subsequently cultured in an atmosphere of 5% CO2 at 37° C. for 24 h. The cells were washed with PBS once, and 400 μl MTT agent was added in each well so as to react for 4 h. Then 400 μl 10% SDS was added in each well so as to react for 12 h. 200 μl supernatant was taken from the well and then added into a 96-well microplate, so as to measure the absorbance at 570 nm.
In the MTT assay, the MDA-MB-453 cells were cultured in a culture medium including 5% fetal bovine serum-DMEM F12/insulin/hydrocortisol/epidermal growth factor. Then the cells were cultured at an atmosphere of 5% CO2 in an incubator at a constant temperature of 37° C. When a certain number of cells were generated in culture, the culture medium was removed after being centrifuged at 900 rmp for 10 min. The culture medium was replaced in 24 h before the experiment, and the number of cells was counted by a hemocytometer.

`COC1=C(OC)C(=O)C(C)=C(C)C1=O` [compound II] was tested, and the “expression of NF-κB” value [1] was “inhibit expression of NF-κB”, the “content of oxygen species compared with the control group” value [2] was “higher” and the “tumor a period after injection” value [3] was “completely disappears”. The “tumor volume versus control group” value [3] was “obviously smaller”, the tumor weight ([3]; control 0.455±0.328) was 0.039±0.028 and the cell viability ([4]; 40 μM with 2.5 mM antioxidant NAC) was “recovered”. The cell viability ([4]; 40 μM, compound only) was “half of that in the control group”, the IC50 ([4]; Homo sapiens, viability, MDA-MB-453 cell strain, Table 1) was 36.7 µM and the “viability of breast tumor cells” value ([4]; MDA-MB-453, with increasing concentration, FIG. 21) was “inhibited significantly”.
